Data from patent publication US20070292351A1, “Assay for efficacy of histone deacetylase inhibitors” (Methylgene, Inc., priority 2006, published 2007).

Columns and labels:
RPMI-8226 myeloma cells = assay: RT-PCR of MT3 transcription in RPMI-8226 cells; type: cell-based, human; settings: 16 h, semi-quantitative RT-PCR (FIG. 2)
Experimental: RNA was extracted from 8×10^6 cells using the Qiagen RNeasy Mini kit (cat#74106, Qiagen, Missisauga Ont.) following the manufacturer's instructions. RT reaction was performed using the Expand Reverse Transcriptase kit from Roche (Cat#1 785 834 Roche Applied Biosciences, Laval, Que) with 1 μg total RNA together with 1 μl oligo(dT) primer (cat#y01212, Invitrogen-Canada, Burlington, Ont). cDNA was synthesized using an Eppendorf Mastercycler gradient PCR apparatus (Brinkmann Instruments Canada LTD., Mississauga, Ontario), using a two cycle protocol. For the 1st cycle reaction mixture (0.5 μl H2O, 4 μl of 5× Buffer, 2 μl DTT, 2 ul of 10 mM dNTPs, 0.5 μl RNAsin (cat#N211B, Promega, Fisher Scientific, Whitby, Ont.) and […] of the Expand Reverse Transcriptase (Cat#1785834, Roche, Laval, Quebec)) was incubated at 65° C. for 10 minutes and then set on ice. A second cycle was performed at 42° C. for 1 hour. The resulting cDNA products were kept at 4° C. until used.
One ul of the resulting cDNA was used for every amplification reaction with 18.9 ul H2O, 1.25 ul of 10 mM dNTPs, 0.5 ul of each primer pair, 2.5 ul of 10× Buffer. The PCR reaction was carried out in an Eppendorf Mastercycler gradient. The sequences of the primers used for the amplification of selected biomarkers, as well as the details of the PCR reaction cycles are featured below. […]

IL-6 = IL-6 protein levels in plasma by ELISA; type: in vivo, human; settings: leukemia patients, Day 8, ELISA (FIG. 17)
Experimental: FIG. 17 Induction of plasma IL-6 from leukemia patients from treated with MGCD0103 at Day 8, analyzed by ELISA assays.
Patient plasma samples at […] were analyzed by ELISA
Human patients with either solid tumors or leukemia/MDS diseases were enrolled in phase I studies with consensus forms. MGCD0103 were dosed into patients orally every other day (day 1, day 3, day 5 […]). Blood samples were withdrawled by using the Vacutainer sodium-heparin blood collection tubes (Becton Dickinson Laboratories, Franklin Lakes, N.J.) and shipped to the test site within 24 hours on ice-pack. Baseline samples were drawn immediately prior to the first drug dose, while the 24 hour samples were drawn at 24 hours post the first drug dose. The 48 hours samples were drawn at 48 hours post the first dose. For the 1 week samples, blood was drawn 72 hours after day 5 dose (3 accumulated doses during week 1).
Blood from patients was centrifuged at 2500 RPM for 10 min at 10° C. Plasma was separated and frozen until used. Plasma was thawed, and spun again at 2500 RPM for 10 min at 10° C. The level of IL-6 was determined by ELISA (eBioscience, San Diego, Calif.), following the manufacturer's instructions. IL-6 concentration (pg/ml) in the samples was calculated from a standard curve generated by using standard IL-6 also provided in the kit. […] All the data was calculated and plotted using Excel.

peripheral white cells = assay: Cytokine/chemokine transcription in peripheral white cells treated ex vivo; type: cell-based, human
Experimental: FIG. 15 Induction of transcription of IL-6, IL-8, IL-1b, MIP1b cytokine/chemokines by MGCD0103 in peripheral white cells ex vivo from a MDS patient and in vivo in an AML patient with response (Patient J).
Whole blood from either consenting healthy volunteers or consenting patients was centrifuged at 2500 rpm for 10 minutes at ambient temperature in a Sorvall RT-7 centrifuge (Mandel Scientific Co., Guelph, Ontario). Plasma was removed and buffy coat was collected. Five volumes of Erythrocyte Lysis Buffer (EL) (Qiagen Canada Inc., Mississauga, Ontario) were added into buffy coat. Buffy coat was incubated on ice for 20 minutes before it was centrifuged at 400 g for 10 minutes at 4° C. Supernatant was removed and buffy coat was washed twice with EL buffer and re-centrifuged. Buffy coat was resuspended in RPMI media and cells were counted with trypan blue exclusion. To isolate PBMCs, buffy coat cells were centrifuged over Lymphoprep (Axis-Shield, 1114544), and any remaining erythrocytes in the sample were lysed by treatment with EL lysis buffer (Qiagen, 79217). The cell pellets are washed and then re-suspended in RPMI containing 10% FBS.

## Nc1ccccc1NC(=O)c1ccc(CNc2nccc(-c3cccnc3)n2)cc1 [MGCD0103]
RPMI-8226 myeloma cells
  Dose-dependent induction of MT3 transcription: Dose-dependent induction
IL-6
  induction of plasma IL-6: induction
Peripheral white cells; peripheral white cells ex vivo from a MDS patient (Patient J) (FIG. 15)
  induction of transcription of IL-6, IL-8, IL-1b, MIP1b: induction
Peripheral white cells; peripheral white cells from healthy volunteers treated ex vivo (FIG. 15)
  induction of transcription of IL-6, IL-8, IL-1b, MIP1b: No such induction
